How the values were obtained:
[1] = tested on: tumor necrosis factor (α); assay: Cytokine Induction in Human Cells: tumor necrosis factor; assay type: cell-based; conditions: human PBMC, 18 to 24 hours, tested 30-0.014 μM, TNF by ELISA or IGEN assay; read-out: Lowest Effective Concentration (μM) Tumor Necrosis Factor
Description: (§1) An in vitro human blood cell system is used to assess cytokine induction. Activity is based on the measurement of interferon and tumor necrosis factor (α) (IFN and TNF, respectively) secreted into culture media as described by Testerman et. al. In “Cytokine Induction by the Immunomodulators Imiquimod and S-27609”, Journal of Leukocyte Biology, 58, 365-372 (September, 1995).
(§2) Whole blood from healthy human donors is collected by venipuncture into EDTA vacutainer tubes. Peripheral blood mononuclear cells (PBMC) are separated from whole blood by density gradient centrifugation using Histopaque®-1077. Blood is diluted 1:1 with Dulbecco's Phosphate Buffered Saline (DPBS) or Hank's Balanced Salts Solution (HBSS). The PBMC layer is collected and washed twice with DPBS or HBSS and resuspended at 4×10^6 cells/mL in RPMI complete. The PBMC suspension is added to 48 well flat bottom sterile tissue culture plates (Costar, Cambridge, Mass. or Becton Dickinson Labware, Lincoln Park, N.J.) containing an equal volume of RPMI complete media containing test compound.
(§3) The compounds are solubilized in dimethyl sulfoxide (DMSO). The DMSO concentration should not exceed a final concentration of 1% for addition to the culture wells. The compounds are generally tested at concentrations ranging from 30-0.014 μM.
(§4) The solution of test compound is added at 60 μM to the first well containing RPMI complete and serial 3 fold dilutions are made in the wells. The PBMC suspension is then added to the wells in an equal volume, bringing the test compound concentrations to the desired range (30-0.014 μM). The final concentration of PBMC suspension is 2×10^6 cells/mL. The plates are covered with sterile plastic lids, mixed gently and then incubated for 18 to 24 hours at 37° C. in a 5% carbon dioxide atmosphere.
(§5) Following incubation the plates are centrifuged for 10 minutes at 1000 rpm (˜200× g) at 4° C. The cell-free culture supernatant is removed with a sterile polypropylene pipet and transferred to sterile polypropylene tubes. Samples are maintained at −30 to −70° C. until analysis. The samples are analyzed for interferon (α) by ELISA and for tumor necrosis factor (α) by ELISA or IGEN Assay
Tumor necrosis factor (α) (TNF) concentration is determined using ELISA kits available from Biosource International, Camarillo, Calif. Alternately, the TNF concentration can be determined by Origen® M-Series Immunoassay and read on an IGEN M-8 analyzer from IGEN International, Gaithersburg, Md. The immunoassay uses a human TNF capture and detection antibody pair from Biosource International, Camarillo, Calif. Results are expressed in pg/mL.
(§6) The table below lists the lowest concentration found to induce interferon and the lowest concentration found to induce tumor necrosis factor for each compound.

[2] = tested on: interferon (α); assay: Cytokine Induction in Human Cells: interferon; assay type: cell-based; conditions: human PBMC, 18 to 24 hours, tested 30-0.014 μM, interferon (α) by ELISA; read-out: Lowest Effective Concentration (μM) Interferon
Description: as §1, §2, §3, §4, §5
Interferon (α) concentration is determined by ELISA using a Human Multi-Species kit from PBL Biomedical Laboratories, New Brunswick, N.J. Results are expressed in pg/mL.
as §6

Row | SMILES | melting point | minimal effective concentration [1] | minimal effective concentration [2]
1 | CCCCc1nc2c(N)nc3ccccc3c2n1CCCCSc1ccccc1 [Example 1, 2-butyl-1-[4-(phenylthio)butyl]-1H-imidazo[4,5-c]quinolin-4-amine] | 118 to 120 °C | 0.12 µM | 0.12 µM
2 | CCCCc1nc2c(N)nc3ccccc3c2n1CCCCCSC [Example 17, 2-butyl-1-[5-(methylthio)pentyl]-1H-imidazo[4,5-c]quinolin-4-amine] | 112 to 114 °C | 0.04 µM | 0.01 µM
3 | CCCc1nc2c(N)nc3ccccc3c2n1CCCCCS(C)(=O)=O [Example 21, 1-[5-(methylsulfonyl)pentyl]-2-propyl-1H-imidazo[4,5-c]quinolin-4-amine] | 179 to 181 °C | 0.37 µM | 0.12 µM
4 | Nc1nc2ccccc2c2c1ncn2CCSc1ccccc1 [Example 6, 1-[2-(phenylthio)ethyl]-1H-imidazo[4,5-c]quinolin-4-amine] | 233 to 235 °C | 10 µM | 3.33 µM
5 | CCCCc1nc2c(N)nc3ccccc3c2n1CCCCSC [Example 4, 2-butyl-1-[4-(methylthio)butyl]-1H-imidazo[4,5-c]quinolin-4-amine] | 127 to 130 °C | 0.01 µM | 0.01 µM
6 | CSCCCCn1cnc2c(N)nc3ccccc3c21 [Example 10, 1-[4-(methylthio)butyl]-1H-imidazo[4,5-c]quinolin-4-amine] | 163 to 164 °C | 1.11 µM | 1.11 µM

Now from value to molecule, other results behind:

Row | melting point | SMILES | minimal effective concentration [1] | minimal effective concentration [2]
7 | 242 to 245 °C | Cc1nc2c(N)nc3ccccc3c2n1CCS(C)(=O)=O [Example 33, 2-methyl-1-[2-(methylsulfonyl)ethyl]-1H-imidazo[4,5-c]quinolin-4-amine] | 10 µM | 3.33 µM
8 | 212 to 214 °C | CCCc1nc2c(N)nc3ccccc3c2n1CCS(C)(=O)=O [Example 36, 1-[2-(methylsulfonyl)ethyl]-2-propyl-1H-imidazo[4,5-c]quinolin-4-amine] | 1.11 µM | 1.11 µM
9 | 199 to 202 °C | CSCCCn1c(C)nc2c(N)nc3ccccc3c21 [Example 22, 2-methyl-1-[3-(methylthio)propyl]-1H-imidazo[4,5-c]quinolin-4-amine] | 1.11 µM | 0.37 µM
10 | 225 to 228 °C | Cc1nc2c(N)nc3ccccc3c2n1CCCS(C)(=O)=O [Example 23, 2-methyl-1-[3-(methylsulfonyl)propyl]-1H-imidazo[4,5-c]quinolin-4-amine] | 10 µM | 3.33 µM
11 | 171 to 172 °C | Nc1nc2ccccc2c2c1ncn2CCCCCS(=O)(=O)c1ccccc1 [Example 69, 1-[5-(phenylsulfonyl)pentyl]-1H-imidazo[4,5-c]quinolin-4-amine] | 1.11 µM | 1.11 µM
12 | 222 to 225 °C | CCc1nc2c(N)nc3ccccc3c2n1CCS(C)(=O)=O [Example 35, 2-ethyl-1-[2-(methylsulfonyl)ethyl]-1H-imidazo[4,5-c]quinolin-4-amine] | 3.33 µM | 1.11 µM
13 | 190 to 193 °C | CCCCc1nc2c(N)nc3ccccc3c2n1CCCCS(=O)(=O)c1ccc(F)cc1F [Example 38, 2-butyl-1-{4-[(2,4-difluorophenyl)sulfonyl]butyl}-1H-imidazo[4,5-c]quinolin-4-amine] | 1.11 µM | 0.37 µM
